Drawing on patent US20240150358A1, “PURINES AND METHODS OF THEIR USE” (Kineta, Inc., priority 2020, published 2024), this text covers IC50 for 16 molecules.

The IC50 is the concentration that inhibits the measured activity by half.

Sequence of full-length human PIKFYVE (Q9Y2I7 whole entry S696N/L932S/Q995L/T998S/S1033A/Q1183K): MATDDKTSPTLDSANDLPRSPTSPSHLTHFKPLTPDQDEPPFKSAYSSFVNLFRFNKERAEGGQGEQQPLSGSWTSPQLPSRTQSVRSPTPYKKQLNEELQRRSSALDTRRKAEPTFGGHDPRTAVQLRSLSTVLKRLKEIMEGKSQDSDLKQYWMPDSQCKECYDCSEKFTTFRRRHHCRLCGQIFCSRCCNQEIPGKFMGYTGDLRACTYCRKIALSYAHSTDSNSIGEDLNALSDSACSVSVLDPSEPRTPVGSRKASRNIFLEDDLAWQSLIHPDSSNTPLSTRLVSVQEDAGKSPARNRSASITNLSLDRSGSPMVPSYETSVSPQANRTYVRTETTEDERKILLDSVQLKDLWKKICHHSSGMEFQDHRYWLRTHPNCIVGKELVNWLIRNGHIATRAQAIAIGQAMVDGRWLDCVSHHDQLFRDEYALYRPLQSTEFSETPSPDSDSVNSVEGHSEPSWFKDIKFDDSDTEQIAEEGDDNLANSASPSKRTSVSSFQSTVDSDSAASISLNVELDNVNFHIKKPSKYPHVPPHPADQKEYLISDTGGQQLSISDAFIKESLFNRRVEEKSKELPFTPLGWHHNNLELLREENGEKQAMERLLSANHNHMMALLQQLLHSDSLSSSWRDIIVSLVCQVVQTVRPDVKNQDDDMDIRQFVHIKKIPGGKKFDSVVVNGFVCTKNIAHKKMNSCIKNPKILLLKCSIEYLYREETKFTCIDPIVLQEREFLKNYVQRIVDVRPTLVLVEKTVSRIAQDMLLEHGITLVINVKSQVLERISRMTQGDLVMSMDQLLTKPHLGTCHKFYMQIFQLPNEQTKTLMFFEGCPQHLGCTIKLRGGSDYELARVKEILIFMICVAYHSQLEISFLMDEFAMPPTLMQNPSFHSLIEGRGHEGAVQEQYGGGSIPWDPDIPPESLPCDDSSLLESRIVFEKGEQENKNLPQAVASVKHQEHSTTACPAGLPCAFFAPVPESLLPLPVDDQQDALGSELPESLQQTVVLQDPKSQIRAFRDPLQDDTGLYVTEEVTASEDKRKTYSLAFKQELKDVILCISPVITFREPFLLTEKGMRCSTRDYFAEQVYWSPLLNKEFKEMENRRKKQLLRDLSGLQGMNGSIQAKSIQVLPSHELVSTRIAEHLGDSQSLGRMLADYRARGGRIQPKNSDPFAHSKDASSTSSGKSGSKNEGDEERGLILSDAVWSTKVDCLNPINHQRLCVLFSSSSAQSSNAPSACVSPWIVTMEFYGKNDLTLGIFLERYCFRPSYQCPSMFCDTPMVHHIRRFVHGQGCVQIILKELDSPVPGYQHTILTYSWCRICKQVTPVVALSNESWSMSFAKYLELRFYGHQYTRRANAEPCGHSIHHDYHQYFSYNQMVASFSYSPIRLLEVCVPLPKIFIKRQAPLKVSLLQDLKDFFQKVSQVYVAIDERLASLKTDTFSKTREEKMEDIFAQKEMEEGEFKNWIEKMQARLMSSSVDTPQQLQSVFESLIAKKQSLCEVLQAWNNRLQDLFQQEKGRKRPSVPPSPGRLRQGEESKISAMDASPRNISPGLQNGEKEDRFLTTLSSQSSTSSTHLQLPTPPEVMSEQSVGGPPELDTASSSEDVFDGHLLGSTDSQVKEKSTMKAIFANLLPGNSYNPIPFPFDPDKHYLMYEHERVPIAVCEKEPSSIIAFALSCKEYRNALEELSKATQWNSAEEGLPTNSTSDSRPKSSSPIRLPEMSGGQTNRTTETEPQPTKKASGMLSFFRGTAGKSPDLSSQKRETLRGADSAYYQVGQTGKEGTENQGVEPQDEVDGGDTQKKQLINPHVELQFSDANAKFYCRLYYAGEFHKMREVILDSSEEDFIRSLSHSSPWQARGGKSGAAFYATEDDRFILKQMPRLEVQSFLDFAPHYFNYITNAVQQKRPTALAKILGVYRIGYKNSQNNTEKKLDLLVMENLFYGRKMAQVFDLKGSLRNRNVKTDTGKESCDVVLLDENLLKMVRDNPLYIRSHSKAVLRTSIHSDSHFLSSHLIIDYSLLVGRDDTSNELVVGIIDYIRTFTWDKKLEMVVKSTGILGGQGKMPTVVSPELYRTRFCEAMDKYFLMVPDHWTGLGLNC

This experiment has as its target full-length human PIKFYVE (Homo sapiens (Human), UniProt Q9Y2I7, L932S/Q1183K/Q995L/S1033A/S696N/T998S). Nature of the experiment: PIKfyve biochemical assay (ADP-Glo Kinase assay, Carna Biosciences). The following applies: ADP-Glo, GST-PIKFYVE, 10 μM to 3 nM; read-out: hPIKfyve IC50. As to the method:
(§1) PIKfyve Biochemical Assay. The biochemical PIKFyve inhibition assays were run by Carna Biosciences according to proprietary methodology based on the Promega ADP-Glo™ Kinase assay. […] GST-PIKFYVE was purified by using glutathione sepharose chromatography and used in an ADP-Glo™ Kinase assay (Promega). Reactions were set up by adding the test compound solution, substrate solution, ATP solution and kinase solution, each at 4× final concentrations. Reactions were prepared with assay buffer (50 mM MOPS, 1 mM DTT, pH7.2), mixed, and incubated in black 384 well polystyrene plates for 1 hour at room temperature. ADPGlo™ reagent was then added for 40 minutes, followed by kinase detection reagent for an additional 40 minutes. The kinase activity was evaluated by detecting relative light units on a luminescence plate reader. Samples were run in duplicate from 10 μM to 3 nM. […] IC50 values were calculated from concentration vs % inhibition curves by fitting to a four-parameter logistic curve.
as §1, with “The” for “PIKfyve Biochemical Assay. The”, “ADP-Glo™” for “ADPGlo™”, “uM” for “μM”, “curve. […]” for “curve.”
For orientation: ADP-Glo turns the ADP formed in a reaction into a luminescent signal.
As for `Cn1c(-c2ccncc2)nc2c(N3CCOCC3)nc(-c3ccc(Cl)cn3)nc21` [Compound 98, 4-(2-(5-chloropyridin-2-yl)-9-methyl-8-(pyridin-4-yl)-9H-purin-6-yl)morpholine], the half-inhibitory concentration (IC50) is 10 to 100 nM.

On to `Cn1c(-c2ccncc2)nc2c(N3CCOCC3)nc(-c3ccc4c(c3)OCO4)nc21` [Compound 99, 4-(2-(benzo[d][1,3]dioxol-5-yl)-9-methyl-8-(pyridin-4-yl)-9H-purin-6-yl)morpholine], for which the half-maximal inhibitory concentration (IC50) lay within 10 to 100 nM.

As for `Cn1c(-c2ccncc2)nc2c(N3CCOCC3)nc(-n3ccc(C(F)(F)F)n3)nc21` [Compound 100, 4-(9-methyl-8-(pyridin-4-yl)-2-(3-(trifluoromethyl)-1H-pyrazol-1-yl)-9H-purin-6-yl)morpholine], the half-inhibitory concentration (IC50) was < 10 nM.

Take `Cn1c(-c2ccncc2)nc2c(N3CCOCC3)nc(N3CCC(F)(F)C3)nc21` [Compound 101, 4-(2-(3,3-difluoropyrrolidin-1-yl)-9-methyl-8-(pyridin-4-yl)-9H-purin-6-yl)morpholine]: the 50% inhibitory concentration (IC50) fell in the range of 10 to 100 nM.

Turning to `Cn1c(-c2ccncc2)nc2c(N3CCOCC3)nc(NC3CCCC3)nc21` [Compound 102, N-cyclopentyl-9-methyl-6-morpholino-8-(pyridin-4-yl)-9H-purin-2-amine], the IC50 was in the range of 10 to 100 nM.

Regarding `Cn1c(-c2ccncc2)nc2c(N3CCOCC3)nc(-c3nccc(C4CC4)n3)nc21` [Compound 103, 4-(2-(4-cyclopropylpyrimidin-2-yl)-9-methyl-8-(pyridin-4-yl)-9H-purin-6-yl)morpholine], the IC50 was 10 to 100 nM.

`Cn1c(-c2ccncc2)nc2c(N3CCOCC3)nc(-c3cccnc3)nc21` [Compound 104, 4-(9-methyl-2-(pyridin-3-yl)-8-(pyridin-4-yl)-9H-purin-6-yl)morpholine]: the IC50 is 10 to 100 nM.

As to `FC(F)n1c(-c2ccncc2)nc2c(N3CCOCC3)nc(-c3ccnc(-c4ccccc4)n3)nc21` [Compound 105, 4-(9-(difluoromethyl)-2-(2-phenylpyrimidin-4-yl)-8-(pyridin-4-yl)-9H-purin-6-yl)morpholine], the 50% inhibitory concentration (IC50) was in the range of 1000 to 10000 nM.

Turning to `COc1ccc(-c2nc(N3CCOCC3)c3nc(-c4ccncc4)n(C)c3n2)cc1OC` [Compound 106, 4-(2-(3,4-dimethoxyphenyl)-9-methyl-8-(pyridin-4-yl)-9H-purin-6-yl)morpholine], the IC50 is < 10 nM.

With `CN1Cc2ccc(-c3nc(N4CCOCC4)c4nc(-c5ccncc5)n(C)c4n3)cc2C1=O` [Compound 107, 2-methyl-6-(9-methyl-6-morpholino-8-(pyridin-4-yl)-9H-purin-2-yl)isoindolin-1-one], the IC50 is < 10 nM.

Regarding `Cn1c(-c2ccncc2)nc2c(N3CCOCC3)nc(-c3ccnc(C4CCNCC4)n3)nc21` [Compound 108, 4-(9-methyl-2-(2-(piperidin-4-yl)pyrimidin-4-yl)-8-(pyridin-4-yl)-9H-purin-6-yl)morpholine], the IC50 was < 10 nM.

On to `c1ccc(-c2nc(-c3nc(N4CCOCC4)c4nc(-c5ccncc5)[nH]c4n3)no2)cc1` [Compound 109, 4-(2-(5-phenyl-1,2,4-oxadiazol-3-yl)-8-(pyridin-4-yl)-9H-purin-6-yl)morpholine], for which the IC50 fell in the range of 10 to 100 nM.

On to `Cn1c(-c2ccncc2)nc2c(N3CCOCC3)nc(C3CC3)nc21` [Compound 110, 4-(2-cyclopropyl-9-methyl-8-(pyridin-4-yl)-9H-purin-6-yl)morpholine], for which the IC50 was < 10 nM.

Consider `Cn1c(C2CCNCC2)nc2c(N3CCOCC3)nc(-c3ccc4c(c3)OCCO4)nc21` [Compound 113, 4-(2-(2,3-dihydrobenzo[b][1,4]dioxin-6-yl)-9-methyl-8-(piperidin-4-yl)-9H-purin-6-yl)morpholine], for which the IC50 was < 10 nM.

In the case of `Cn1c(-c2ccncc2)nc2c(N3CCOCC3)nc(-c3ccc4c(c3)NCCC4)nc21` [Compound 114, 4-(9-methyl-8-(pyridin-4-yl)-2-(1,2,3,4-tetrahydroquinolin-7-yl)-9H-purin-6-yl)morpholine], the IC50 was < 10 nM.

With `CS(=O)(=O)N1CCN(Cc2cc3c(N4CCOCC4)nc(-c4cccc5[nH]ncc45)nc3s2)CC1` [Compound 117], the half-inhibitory concentration (IC50) is 100 to 1000 nM.
